The record followed here is patent US12338237B2, “Derivatives having 1,2,3,4-tetrahydronaphthalene moiety or pharmaceutically acceptable salt thereof and pharmaceutical compositions comprising the same” (YUHAN CORPORATION, priority 2019, dated 2025).

For experiment [1], the target named is glucosylceramide synthase (GCS) (Homo sapiens (Human), UniProt Q16739). The experiment in a line: Evaluation of inhibitory activities against GCS (enzyme reaction with A549 cell lysate, NBD C6-ceramide, HPLC fluorescence). The following applies: GCS activity in A549 cell lysate, 37° C. for 90 minutes. In kind it is biochemical. The method, then:
Ibiglustat, known as a GCS inhibitor, was used as a control.
After the cells attached to the culture dish were washed with phosphate buffered saline (PBS), the cells were scraped off with a cell scraper and then centrifuged (4000 rpm, 3 min, 4° C.) to collect the cells in a 50 ml tube. The cell pellets were suspended in a lysis buffer (50 mM HEPES, pH 7.3, containing 1× the protease/phosphatase inhibitor cocktail), lysed by sonication, and then the lysate was centrifuged (13000 rpm, 10 min, 4° C.). The obtained supernatant was used for the quantitative analysis of proteins. The amount of proteins was measured using the BCA protein assay kit, using bovine serum albumin as a standard.
Enzymatic reactions were initiated by sequentially adding the following reaction materials to a 96 deep-well plate. Thereafter, the enzymatic reactions were performed at 37° C. for 90 minutes.
The enzymatic reactions were stopped by adding 100 μl of chloroform/methanol (2:1, v/v). After vortexing for 15 seconds, each mixture was centrifuged (4000 rpm, 10 min, 18° C.). The lower layer (50 μl) was transferred to a new 96 deep-well plate and dried with a reduced concentrator.
Data analysis was performed by the following equations. % Area (Sample)=Area (GlcCer)/[Area (Cer)+Area (GlcCer)]×100 % GCS activity=[Area(Sample)−Area(ibiglustat)]/[Area(DMSO)−Area(ibiglustat)]×100

In the next experiment the test system is GM1 production. The experiment can be described thus: cells. In kind it is cell-based.

pIC50: −log10 of the molar value. Where two headings read alike, the source gives them in different places.

Sequence of glucosylceramide synthase (GCS) (Q16739 whole entry, looked up): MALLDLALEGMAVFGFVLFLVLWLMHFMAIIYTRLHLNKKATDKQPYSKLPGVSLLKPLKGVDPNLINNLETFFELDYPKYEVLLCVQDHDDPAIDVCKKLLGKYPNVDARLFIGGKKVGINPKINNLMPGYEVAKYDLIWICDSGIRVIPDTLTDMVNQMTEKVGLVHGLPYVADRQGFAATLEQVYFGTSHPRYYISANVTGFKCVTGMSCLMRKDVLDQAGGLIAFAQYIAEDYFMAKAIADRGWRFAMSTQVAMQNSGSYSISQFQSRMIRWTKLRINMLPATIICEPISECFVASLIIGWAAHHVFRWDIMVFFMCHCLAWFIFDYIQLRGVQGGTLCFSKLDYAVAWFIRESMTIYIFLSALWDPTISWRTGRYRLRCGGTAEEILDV

By pIC50 is commonly meant the IC50 on a negative log10 scale, so that one unit is a factor of ten. Take `O=C(NC1CCCc2cc(-c3ccccc3OC(F)(F)F)ccc21)O[C@@H]1CN2CCC1CC2` (stereo partly drawn) [Example 12, (S)-quinuclidin-3-yl (6-(2-(trifluoromethoxy)phenyl)-1,2,3,4-tetrahydronaphthalen-1-yl)carbamate]: the pIC50 in experiment [1] was 8.03; with GM1 production (Homo sapiens, Jurkat, 72 h) it was 7.71.

With `O=C(NC1CCCc2cc(-c3ccc(OC(F)F)cc3)ccc21)O[C@@H]1CN2CCC1CC2` (stereo partly drawn) [Example 13, (S)-quinuclidin-3-yl (6-(4-(difluoromethoxy)phenyl)-1,2,3,4-tetrahydronaphthalen-1-yl)carbamate], the pIC50 in experiment [1] was 7.63; with GM1 production (Homo sapiens, Jurkat, 72 h), 6.84.

Turning to `Cc1ccc(-c2ccc3c(c2)CCCC3NC(=O)O[C@@H]2CN3CCC2CC3)cc1` (stereo partly drawn) [Example 14, (S)-quinuclidin-3-yl (6-(p-tolyl)-1,2,3,4-tetrahydronaphthalen-1-yl)carbamate], the pIC50 is 8.06 in experiment [1] and 7.21 in the experiment with GM1 production (Homo sapiens, Jurkat, 72 h).

Take `O=C(NC1CCCc2cc(-c3ccc(F)c(F)c3)ccc21)O[C@@H]1CN2CCC1CC2` (stereo partly drawn) [Example 15, (S)-quinuclidin-3-yl (6-(3,4-difluorophenyl)-1,2,3,4-tetrahydronaphthalen-1-yl)carbamate]: the negative-log IC50 (pIC50) in experiment [1] was 8.16; with GM1 production (Homo sapiens, Jurkat, 72 h), 7.71.

For the molecule `O=C(NC1CCCc2cc(-c3cc(F)ccc3F)ccc21)O[C@@H]1CN2CCC1CC2` (stereo partly drawn) [Example 16, (S)-quinuclidin-3-yl (6-(2,5-difluorophenyl)-1,2,3,4-tetrahydronaphthalen-1-yl)carbamate], the pIC50 in experiment [1] is 8.40; in the experiment on GM1 production (Homo sapiens, Jurkat, 72 h), 7.47.

`O=C(NC1CCCc2cc(-c3cc(F)cc(F)c3)ccc21)O[C@@H]1CN2CCC1CC2` (stereo partly drawn) [Example 17, (S)-quinuclidin-3-yl (6-(3,5-difluorophenyl)-1,2,3,4-tetrahydronaphthalen-1-yl)carbamate]: the negative-log IC50 (pIC50) in experiment [1] was 8.24; in the experiment with GM1 production (Homo sapiens, Jurkat, 72 h) it was 7.43.

`O=C(NC1CCCc2cc(-c3ccc(F)cc3F)ccc21)O[C@@H]1CN2CCC1CC2` (stereo partly drawn) [Example 18, (S)-quinuclidin-3-yl (6-(2,4-difluorophenyl)-1,2,3,4-tetrahydronaphthalen-1-yl)carbamate]: the pIC50 in experiment [1] is 8.27; in the experiment with GM1 production (Homo sapiens, Jurkat, 72 h) it was 7.00.

Consider `O=C(NC1CCCc2cc(-c3cccc(F)c3F)ccc21)O[C@@H]1CN2CCC1CC2` (stereo partly drawn) [Example 19, (S)-quinuclidin-3-yl (6-(2,3-difluorophenyl)-1,2,3,4-tetrahydronaphthalen-1-yl)carbamate], for which the pIC50 in experiment [1] was 8.46; with GM1 production (Homo sapiens, Jurkat, 72 h) it was 7.17.

For the molecule `O=C(NC1CCCc2cc(-c3ccc(F)c(F)c3F)ccc21)O[C@@H]1CN2CCC1CC2` (stereo partly drawn) [Example 20, (S)-quinuclidin-3-yl (6-(2,3,4-trifluorophenyl)-1,2,3,4-tetrahydronaphthalen-1-yl)carbamate], the pIC50 in experiment [1] is 8.15; with GM1 production (Homo sapiens, Jurkat, 72 h) it was 7.07.

Turning to `O=C(NC1CCCc2cc(-c3cc(F)c(F)cc3F)ccc21)O[C@@H]1CN2CCC1CC2` (stereo partly drawn) [Example 21, (S)-quinuclidin-3-yl (6-(2,4,5-trifluorophenyl)-1,2,3,4-tetrahydronaphthalen-1-yl)carbamate], the pIC50 in experiment [1] is 8.60; with GM1 production (Homo sapiens, Jurkat, 72 h), 7.38.

As for `O=C(NC1CCCc2cc(-c3ccc(Cl)c(Cl)c3)ccc21)O[C@@H]1CN2CCC1CC2` (stereo partly drawn) [Example 22, (S)-quinuclidin-3-yl (6-(3,4-dichlorophenyl)-1,2,3,4-tetrahydronaphthalen-1-yl)carbamate], the negative-log IC50 (pIC50) was 8.07 in experiment [1] and 7.65 in the experiment with GM1 production (Homo sapiens, Jurkat, 72 h).

Regarding `O=C(NC1CCCc2cc(-c3cc(Cl)ccc3Cl)ccc21)O[C@@H]1CN2CCC1CC2` (stereo partly drawn) [Example 23, (S)-quinuclidin-3-yl (6-(2,5-dichlorophenyl)-1,2,3,4-tetrahydronaphthalen-1-yl)carbamate], the pIC50 in experiment [1] was 8.74; with GM1 production (Homo sapiens, Jurkat, 72 h), 7.56.

With `O=C(NC1CCCc2cc(-c3cc(Cl)cc(Cl)c3)ccc21)O[C@@H]1CN2CCC1CC2` (stereo partly drawn) [Example 24, (S)-quinuclidin-3-yl (6-(3,5-dichlorophenyl)-1,2,3,4-tetrahydronaphthalen-1-yl)carbamate], the negative-log IC50 (pIC50) in experiment [1] is 8.04; in the experiment on GM1 production (Homo sapiens, Jurkat, 72 h) it was 7.64.

Turning to `COCCOc1ccc(-c2ccc3c(c2)CCCC3NC(=O)O[C@@H]2CN3CCC2CC3)cc1` (stereo partly drawn) [Example 25, (S)-quinuclidin-3-yl (6-(4-(2-methoxyethoxy)phenyl)-1,2,3,4-tetrahydronaphthalen-1-yl)carbamate], the negative-log IC50 (pIC50) in experiment [1] was 7.82; in the experiment with GM1 production (Homo sapiens, Jurkat, 72 h), 7.35.

As to `COCOc1ccc(-c2ccc3c(c2)CCCC3NC(=O)O[C@@H]2CN3CCC2CC3)cc1` (stereo partly drawn) [Example 26, (S)-quinuclidin-3-yl (6-(4-(methoxymethoxy)phenyl)-1,2,3,4-tetrahydronaphthalen-1-yl)carbamate], the pIC50 in experiment [1] was 8.18; in the experiment with GM1 production (Homo sapiens, Jurkat, 72 h) it was 7.51.

Turning to `COCCOc1cccc(-c2ccc3c(c2)CCCC3NC(=O)O[C@@H]2CN3CCC2CC3)c1` (stereo partly drawn) [Example 27, (S)-quinuclidin-3-yl (6-(3-(2-methoxyethoxy)phenyl)-1,2,3,4-tetrahydronaphthalen-1-yl)carbamate], the pIC50 in experiment [1] is 8.60; with GM1 production (Homo sapiens, Jurkat, 72 h) it was 7.52.

With `COCOc1cccc(-c2ccc3c(c2)CCCC3NC(=O)O[C@@H]2CN3CCC2CC3)c1` (stereo partly drawn) [Example 28, (S)-quinuclidin-3-yl (6-(3-(methoxymethoxy)phenyl)-1,2,3,4-tetrahydronaphthalen-1-yl)carbamate], the negative-log IC50 (pIC50) is 8.88 in experiment [1] and 8.27 in the experiment with GM1 production (Homo sapiens, Jurkat, 72 h).

As for `COCCOc1ccccc1-c1ccc2c(c1)CCCC2NC(=O)O[C@@H]1CN2CCC1CC2` (stereo partly drawn) [Example 29, (S)-quinuclidin-3-yl (6-(2-(2-methoxyethoxy)phenyl)-1,2,3,4-tetrahydronaphthalen-1-yl)carbamate], the pIC50 was 8.07 in experiment [1] and 6.81 in the experiment on GM1 production (Homo sapiens, Jurkat, 72 h).

As to `COCOc1ccccc1-c1ccc2c(c1)CCCC2NC(=O)O[C@@H]1CN2CCC1CC2` (stereo partly drawn) [Example 30, (S)-quinuclidin-3-yl (6-(2-(methoxymethoxy)phenyl)-1,2,3,4-tetrahydronaphthalen-1-yl)carbamate], the pIC50 in experiment [1] is 8.10; in the experiment with GM1 production (Homo sapiens, Jurkat, 72 h), 7.15.

On to `CCc1ccc(-c2ccc3c(c2)CCCC3NC(=O)O[C@@H]2CN3CCC2CC3)cc1` (stereo partly drawn) [Example 31, (S)-quinuclidin-3-yl (6-(4-ethylphenyl)-1,2,3,4-tetrahydronaphthalen-1-yl)carbamate], for which the pIC50 in experiment [1] is 8.18; with GM1 production (Homo sapiens, Jurkat, 72 h), 8.53.

As to `CCCc1ccc(-c2ccc3c(c2)CCCC3NC(=O)O[C@@H]2CN3CCC2CC3)cc1` (stereo partly drawn) [Example 32, (S)-quinuclidin-3-yl (6-(4-propylphenyl)-1,2,3,4-tetrahydronaphthalen-1-yl)carbamate], the pIC50 in experiment [1] is 8.08; with GM1 production (Homo sapiens, Jurkat, 72 h), 6.32.

In the case of `CCCCc1ccc(-c2ccc3c(c2)CCCC3NC(=O)O[C@@H]2CN3CCC2CC3)cc1` (stereo partly drawn) [Example 33, (S)-quinuclidin-3-yl (6-(4-butylphenyl)-1,2,3,4-tetrahydronaphthalen-1-yl)carbamate], the pIC50 was 8.40 in experiment [1] and 6.30 in the experiment with GM1 production (Homo sapiens, Jurkat, 72 h).

As for `CC(C)c1ccc(-c2ccc3c(c2)CCCC3NC(=O)O[C@@H]2CN3CCC2CC3)cc1` (stereo partly drawn) [Example 34, (S)-quinuclidin-3-yl (6-(4-isopropylphenyl)-1,2,3,4-tetrahydronaphthalen-1-yl)carbamate], the negative logarithm of the IC50 (pIC50) in experiment [1] is 8.21; with GM1 production (Homo sapiens, Jurkat, 72 h), 6.53.

As to `CC(C)Cc1ccc(-c2ccc3c(c2)CCCC3NC(=O)O[C@@H]2CN3CCC2CC3)cc1` (stereo partly drawn) [Example 35, (S)-quinuclidin-3-yl (6-(4-isobutylphenyl)-1,2,3,4-tetrahydronaphthalen-1-yl)carbamate], the pIC50 was 8.04 in experiment [1] and 6.58 in the experiment on GM1 production (Homo sapiens, Jurkat, 72 h).

`CC(C)(C)c1ccc(-c2ccc3c(c2)CCCC3NC(=O)O[C@@H]2CN3CCC2CC3)cc1` (stereo partly drawn) [Example 36, (S)-quinuclidin-3-yl (6-(4-(tert-butyl)phenyl)-1,2,3,4-tetrahydronaphthalen-1-yl)carbamate]: the negative logarithm of the IC50 (pIC50) was 7.65 in experiment [1] and 6.47 in the experiment on GM1 production (Homo sapiens, Jurkat, 72 h).

Regarding `O=C(NC1CCCc2cc(-c3ccc(C4CC4)cc3)ccc21)O[C@H]1CN2CCC1CC2` (stereo partly drawn) [Example 37, (S)-quinuclidin-3-yl (6-(4-cyclopropyl)-1,2,3,4-tetrahydronaphthalen-1-yl)carbamate], the pIC50 in experiment [1] was 8.29; with GM1 production (read-out: IC50), 6.54.

For `CCc1cccc(-c2ccc3c(c2)CCCC3NC(=O)O[C@@H]2CN3CCC2CC3)c1` (stereo partly drawn) [Example 38, (S)-quinuclidin-3-yl (6-(3-ethylphenyl)-1,2,3,4-tetrahydronaphthalen-1-yl)carbamate], the negative-log IC50 (pIC50) is 8.77 in experiment [1] and 6.50 in the experiment on GM1 production (Homo sapiens, Jurkat, 72 h).

For `CC(C)(C)c1cccc(-c2ccc3c(c2)CCCC3NC(=O)O[C@@H]2CN3CCC2CC3)c1` (stereo partly drawn) [Example 39, (S)-quinuclidin-3-yl (6-(3-(tert-butyl)phenyl)-1,2,3,4-tetrahydronaphthalen-1-yl)carbamate], the pIC50 in experiment [1] is 8.54; in the experiment on GM1 production (Homo sapiens, Jurkat, 72 h), 6.07.

`CC(C)c1cccc(-c2ccc3c(c2)CCCC3NC(=O)O[C@@H]2CN3CCC2CC3)c1` (stereo partly drawn) [Example 40, (S)-quinuclidin-3-yl (6-(3-isopropylphenyl)-1,2,3,4-tetrahydronaphthalen-1-yl)carbamate]: the pIC50 in experiment [1] was 8.75; with GM1 production (Homo sapiens, Jurkat, 72 h) it was 6.66.
